Values quoted from earlier work as cited in patent publication US4761405A, “Antagonists of specific excitatory amino acid neurotransmitter receptors having increased potency” (priority 1987, dated 1988).

Experiments:
[1] = system: neurotoxic and convulsive actions of NMDA, IBO and Quin; details: in vivo; cited from earlier work
[2] = system: ischemic brain damage; details: intrahippocampally; rodent carotid artery occlusion model; cited from earlier work
[3] = system: audiogenically-induced seizures; details: i.c.v. and i.v.; genetically susceptible mice; cited from earlier work
[4] = system: chemically-induced seizures; details: rodents; cited from earlier work
[5] = system: electroshock-induced seizures; details: mice; cited from earlier work
[6] = system: photically-induced myoclonus; details: i.v.; baboon; cited from earlier work

For `N[C@H](CCCCCP(=O)(O)O)C(=O)O` [AP7, D(-)-2-amini-7-phosphonoheptanoic acid], which “Effect on neurotoxic and convulsive actions of NMDA, IBO and Quin (but not KA)” value [1] is on record?
The value was “interferring with the neurotoxic and convulsive actions of NMDA, the exogenous excitotoxin, IBO, and the endogenous excitotoxin Quin (but not KA)”.

What about the “Effect on ischemic brain damage” value [2] of the same compound?
Its value is “markedly reduce or eliminate ischemic brain damage”.

And the “Protection against audiogenically-induced seizures” value [3]?
The value was “protects against audiogenically-induced seizures”.

And the “Effect on chemically-induced seizures” value [4]?
The value was “prevents chemically-induced seizures”.

And the “Effect on threshold current for electroshock-induced seizures” value [5]?
The value was “increased threshold current for electroshock-induced seizures”.

What about the “Effect on photically-induced myoclonus” value [6] of the same compound?
Its value is “suppresses photically-induced myoclonus”.
